Experimental data reported in US20040185500A1, “Use of disease-associated gene” (priority 2001, published 2004).

Target: T1, human CLCA4-expressing CHO cells (Homo sapiens, UniProt Q14CN2)
T1 construct: expressed in transfected cells
T1 sequence (Q14CN2 22-919): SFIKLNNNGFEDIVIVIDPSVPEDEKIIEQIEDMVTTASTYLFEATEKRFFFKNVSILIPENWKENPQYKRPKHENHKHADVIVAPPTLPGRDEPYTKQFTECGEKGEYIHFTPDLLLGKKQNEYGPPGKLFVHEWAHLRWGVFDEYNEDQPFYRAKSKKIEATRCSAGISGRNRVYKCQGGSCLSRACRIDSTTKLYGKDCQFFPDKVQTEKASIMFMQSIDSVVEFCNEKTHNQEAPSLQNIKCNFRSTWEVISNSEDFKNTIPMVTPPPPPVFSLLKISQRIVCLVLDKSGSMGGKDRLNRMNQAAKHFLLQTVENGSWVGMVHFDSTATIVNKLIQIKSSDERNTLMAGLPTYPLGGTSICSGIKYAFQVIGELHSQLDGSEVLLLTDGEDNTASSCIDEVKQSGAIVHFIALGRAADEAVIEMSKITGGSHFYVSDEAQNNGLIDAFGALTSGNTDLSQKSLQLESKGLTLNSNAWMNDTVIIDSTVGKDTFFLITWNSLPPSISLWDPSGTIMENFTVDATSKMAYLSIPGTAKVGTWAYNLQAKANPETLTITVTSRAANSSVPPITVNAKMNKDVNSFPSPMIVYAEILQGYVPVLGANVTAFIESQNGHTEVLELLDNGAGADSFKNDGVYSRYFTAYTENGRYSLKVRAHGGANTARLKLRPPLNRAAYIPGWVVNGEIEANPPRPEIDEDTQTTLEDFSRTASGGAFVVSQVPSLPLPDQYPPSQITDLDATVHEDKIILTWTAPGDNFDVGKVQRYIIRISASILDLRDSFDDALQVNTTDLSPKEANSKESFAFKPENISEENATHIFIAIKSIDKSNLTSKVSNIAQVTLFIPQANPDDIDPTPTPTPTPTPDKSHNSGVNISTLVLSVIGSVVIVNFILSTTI
Assay: Ca2+ dependent Cl- channel activity, FLIPR Membrane Potential Assay, ionomycin stimulation
Format: cell-based
Conditions: 2 μM ionomycin, compound added, then cells left for 10 min at room temperature, FIG. 3
Protocol: The ClCA4 expression plasmid pcDNA-hCLCA4 described in (2) above was introduced into CHO cells using FuGENE 6 (Roche Diagnostics) according to the manual accompanying it. The cells were subjected to selective culture in 1 mg/ml neomycin (G418) (Gibco BRL)-added MEM-α medium (Gibco BRL) for 10 days, and cells growing in this medium were obtained as CLCA4 expressing CHO cells. These CLCA4-expressing CHO cells and parent strain CHO cells were plated in 96-well black clear bottom plates (Corning) at 4×10^4 cells/well and cultured overnight. Cl^− channel activity was measured using FLIPR Membrane Potential Assay Kit (Molecular Device). A potential sensitive dye (Component A) diluted with 20 mM HEPES-containing HBSS buffer (Component B) was added to the plates at […] and reacted at 37° C. for 30 min. Then, the plates were set in FLIPR (Molecular Device) and, after addition of ionomycin (Wako Purechemical industries) at a final concentration of 2 μM, changes in fluorescence were observed as Cl^− channel activity. In both parent strain CHO cells and human CLCA4-expressing CHO cells, increase in fluorescence intensity was hardly recognized in the absence of stimulation. When stimulated with 2 μM ionomycin, increase in fluorescence intensity was observed only in human CLCA4-expressing CHO cells (FIG. 2). […]

SMILES: O=C(O)c1cccnc1Nc1cccc(C(F)(F)F)c1 [niflumic acid]
- increase in fluorescence intensity caused by stimulation with ionomycin (Cl- channel activity): inhibited
